In ChEMBL document CHEMBL1909046, “DrugMatrix in vitro pharmacology data”:

Tests used:
[1] = DRUGMATRIX: GABAA, Chloride Channel, TBOB radioligand binding (ligand: [3H] TBOB); format: cell membranes, Rattus norvegicus, Wistar, Cerebral cortex, Membrane; settings: Not Active = under 50% inhibition at 10 µM
[2] = target: T1, Amine oxidase [flavin-containing] A (Homo sapiens, UniProt P21397); assay: DRUGMATRIX: Monoamine Oxidase MAO-A enzyme inhibition (substrate: Kynuramine); set-up: species or system BTI-TN-5B1-4; settings: bti-tn-5b1-4; Not Active = under 50% inhibition at 10 µM
T1 sequence (P21397 whole entry): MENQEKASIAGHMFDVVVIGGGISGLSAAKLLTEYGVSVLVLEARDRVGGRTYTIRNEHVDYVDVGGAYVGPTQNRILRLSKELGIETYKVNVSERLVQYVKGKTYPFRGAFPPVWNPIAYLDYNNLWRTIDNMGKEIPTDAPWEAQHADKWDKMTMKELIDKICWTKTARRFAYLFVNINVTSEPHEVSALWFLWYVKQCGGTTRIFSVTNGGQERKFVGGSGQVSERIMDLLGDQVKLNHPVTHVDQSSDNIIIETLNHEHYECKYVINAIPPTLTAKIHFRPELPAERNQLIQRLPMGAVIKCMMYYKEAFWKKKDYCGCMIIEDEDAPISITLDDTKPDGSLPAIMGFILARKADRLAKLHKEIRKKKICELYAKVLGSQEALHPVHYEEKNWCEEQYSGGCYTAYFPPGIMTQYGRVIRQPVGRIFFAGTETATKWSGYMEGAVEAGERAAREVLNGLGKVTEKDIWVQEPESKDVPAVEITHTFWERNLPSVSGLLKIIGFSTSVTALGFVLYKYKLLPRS

[3] = target: T2, Cysteinyl leukotriene receptor 1 (Homo sapiens, UniProt Q9Y271); format: cell membranes, Membrane; settings: cho-k1; note: in other assays of this panel Not Active means under 50% inhibition at 10 µM
T2 sequence (Q9Y271 whole entry): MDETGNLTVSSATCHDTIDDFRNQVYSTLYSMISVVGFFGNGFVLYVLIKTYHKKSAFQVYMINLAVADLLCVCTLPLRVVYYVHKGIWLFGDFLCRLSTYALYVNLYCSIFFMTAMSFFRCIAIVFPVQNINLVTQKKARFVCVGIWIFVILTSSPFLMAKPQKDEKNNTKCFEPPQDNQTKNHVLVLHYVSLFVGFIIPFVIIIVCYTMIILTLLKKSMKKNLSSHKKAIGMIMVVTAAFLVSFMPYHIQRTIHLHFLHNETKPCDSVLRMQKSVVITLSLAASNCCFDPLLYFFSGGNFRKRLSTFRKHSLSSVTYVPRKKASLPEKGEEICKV

Vasopressin V1a receptor = Vasopressin V1a receptor (Homo sapiens, UniProt P37288); format: cell membranes, Membrane; settings: hek293; note: in other assays of this panel Not Active means under 50% inhibition at 10 µM
[4] = target: 5-hydroxytryptamine receptor 4 (Cavia porcellus, UniProt O70528); format: cell membranes, Dunkin-Hartley, Striatum, Membrane; note: in other assays of this panel Not Active means under 50% inhibition at 10 µM
[5] = target: Tyrosine-protein kinase Fyn (Homo sapiens, UniProt P06241); assay: biochemical; format: cell-based, Insect cells; settings: insect cells;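 note: enzymatic inhibition of Fyn kinase activity measured with Poly(Glu:Tyr) as the phosphorylation substrate; in other assays of this panel Not Active means under 50% inhibition at 10 µM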
Cathepsin G = target: T3, Cathepsin G (Homo sapiens, UniProt P08311); format: tissue-based; settings: neutrophil
T3 sequence (P08311 whole entry): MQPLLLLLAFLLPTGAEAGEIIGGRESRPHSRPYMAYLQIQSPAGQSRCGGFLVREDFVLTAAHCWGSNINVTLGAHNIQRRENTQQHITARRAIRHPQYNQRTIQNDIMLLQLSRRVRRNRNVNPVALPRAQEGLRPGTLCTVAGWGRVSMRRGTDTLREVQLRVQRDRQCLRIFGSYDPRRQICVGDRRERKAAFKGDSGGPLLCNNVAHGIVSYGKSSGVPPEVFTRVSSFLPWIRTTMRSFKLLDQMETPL

Chain of Vasopressin V1a receptor (P37288 whole entry): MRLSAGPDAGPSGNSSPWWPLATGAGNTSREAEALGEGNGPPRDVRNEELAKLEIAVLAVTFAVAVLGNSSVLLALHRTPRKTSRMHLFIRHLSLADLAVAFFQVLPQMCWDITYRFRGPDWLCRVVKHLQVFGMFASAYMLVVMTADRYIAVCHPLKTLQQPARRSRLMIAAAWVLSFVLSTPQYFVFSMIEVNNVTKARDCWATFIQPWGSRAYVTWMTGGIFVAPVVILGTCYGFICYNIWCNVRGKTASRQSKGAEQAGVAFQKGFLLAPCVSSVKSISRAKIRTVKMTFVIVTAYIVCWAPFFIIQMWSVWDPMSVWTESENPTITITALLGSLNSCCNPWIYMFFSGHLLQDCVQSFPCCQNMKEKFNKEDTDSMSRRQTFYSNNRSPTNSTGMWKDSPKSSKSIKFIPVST
Chain of 5-hydroxytryptamine receptor 4 (O70528 whole entry): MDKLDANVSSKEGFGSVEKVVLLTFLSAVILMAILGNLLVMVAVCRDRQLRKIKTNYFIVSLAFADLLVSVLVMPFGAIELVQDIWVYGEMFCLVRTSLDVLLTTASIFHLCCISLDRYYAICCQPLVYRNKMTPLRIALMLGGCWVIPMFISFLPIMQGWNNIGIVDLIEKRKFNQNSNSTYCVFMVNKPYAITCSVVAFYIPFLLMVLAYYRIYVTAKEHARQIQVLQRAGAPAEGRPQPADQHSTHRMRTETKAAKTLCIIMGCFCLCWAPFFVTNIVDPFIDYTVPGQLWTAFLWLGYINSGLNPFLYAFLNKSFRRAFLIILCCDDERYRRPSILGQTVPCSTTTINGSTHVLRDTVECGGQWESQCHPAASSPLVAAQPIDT
Chain of Tyrosine-protein kinase Fyn (P06241 whole entry): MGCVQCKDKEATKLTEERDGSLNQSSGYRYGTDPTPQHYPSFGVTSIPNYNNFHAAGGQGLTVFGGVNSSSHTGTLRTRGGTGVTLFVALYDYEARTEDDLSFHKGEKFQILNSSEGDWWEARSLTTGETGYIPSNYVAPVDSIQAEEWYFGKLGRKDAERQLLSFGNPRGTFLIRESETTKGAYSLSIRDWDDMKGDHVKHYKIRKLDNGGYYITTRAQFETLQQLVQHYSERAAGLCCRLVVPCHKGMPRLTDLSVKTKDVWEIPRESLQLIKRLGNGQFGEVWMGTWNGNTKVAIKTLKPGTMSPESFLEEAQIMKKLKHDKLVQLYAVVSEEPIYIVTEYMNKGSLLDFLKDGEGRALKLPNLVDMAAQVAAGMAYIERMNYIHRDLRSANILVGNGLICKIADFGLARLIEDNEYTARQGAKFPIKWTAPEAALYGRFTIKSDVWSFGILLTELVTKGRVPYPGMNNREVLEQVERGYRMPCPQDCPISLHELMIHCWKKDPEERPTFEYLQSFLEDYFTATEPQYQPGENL

CCN(C(C)=O)c1cccc(-c2ccnc3c(C#N)cnn23)c1 [ZALEPLON]
Not Active: IC50 [1] | Ki [1] | IC50 [2] | IC50 [3] | IC50 (Vasopressin V1a receptor) | IC50 [4] | IC50 [5] | IC50 (Cathepsin G)

COBALTOUS CHLORIDE
Not Active: IC50 [1] | Ki [1] | IC50 [2] | Ki [2] | IC50 [3] | Ki [3] | IC50 (Vasopressin V1a receptor) | Ki (Vasopressin V1a receptor) | IC50 [4] | Ki [4] | IC50 [5] | Ki [5] | IC50 (Cathepsin G) | Ki (Cathepsin G)

COLISTIN
959 nM: IC50 ([5]; read-out: IC50)
Not Active: IC50 [1] | Ki [1] | IC50 [2] | Ki [2] | IC50 [3] | Ki [3] | IC50 (Vasopressin V1a receptor) | Ki (Vasopressin V1a receptor) | IC50 [4] | Ki [4] | IC50 (Cathepsin G) | Ki (Cathepsin G)
